Reference: patent publication US5952307A, “Basic α-aminoalkylphosphonate derivatives” (priority 1997, dated 1999)
Read-outs that look alike come from different tables or passages of the source.

How the values were obtained:
Assay type in all cases: biochemical
bovine trypsin [1] = target: T1, bovine trypsin (Bos taurus, UniProt P00760); assay: Inactivation rate of bovine trypsin, incubation method; conditions: Table III; enzyme 0.06-0.5 μM, inhibitor 0.25-42 μM, 9% DMSO, 25° C.; NI = no inhibition
T1 sequence (P00760 24-246): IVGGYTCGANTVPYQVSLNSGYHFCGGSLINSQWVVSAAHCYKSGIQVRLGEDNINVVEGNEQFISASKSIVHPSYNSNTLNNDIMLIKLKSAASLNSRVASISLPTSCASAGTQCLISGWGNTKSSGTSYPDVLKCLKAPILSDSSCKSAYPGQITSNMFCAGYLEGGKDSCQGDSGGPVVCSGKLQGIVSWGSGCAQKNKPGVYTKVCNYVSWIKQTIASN

bovine trypsin [2] = target: T1, bovine trypsin; assay: as above; conditions: for kobsd /[I] bovine trypsin: Table I, 0.1M Hepes, 0.01M CaCl2 pH 7.5, 25° C., 2% DMSO, substrate Z--Arg--SBzl, NI = no inhibition after 25 min; for kobs /[I] bovine trypsin: Table II, 0.13 μM trypsin, 0.25-42 μM inhibitor, 80 mM Hepes pH 7.5, 1 mM CaCl2, 8% DMSO, 25° C., NI = no inhibition
Protocol: (§1) Inactivation rates of serine proteases by aryl diesters of peptidyl derivatives of α-aminoalkylphosphonates were measured by the incubation method. An aliquot of inhibitor (25 or 50 μl) in Me2 SO was added to a buffered enzyme solution (0.01-2.3 μM) to initiate the inactivation. Aliquots (50 μl) were withdrawn at various intervals and the residual enzymatic activity was measured. Me2 SO concentration in the reaction mixture was 8-12% (v/v). A 0.1 M HEPES, 0.01 M CaCl2, pH 7.5 buffer was utilized for trypsin and trypsin-like enzymes. A 0.1 M HEPES, 0.5 M NaCl, pH 7.5, was utilized for the other serine proteases. Peptide thioesters or peptide nitroanilides with the appropriate sequences were used as substrates for various serine proteases. All peptide thioesters hydrolysis rates were measured with the assay mixture containing 4,4'-dithiodipyridine {ε324 =19800 M^-1 cm^-1; Grasetti & Murray, Arch. Biochem. Biophys. 1967, 119, 41-48}. Peptide 4-nitroanilide hydrolysis was measured at 410 nm {ε410 =8800 M^-1 cm^-1; Erlanger et al., Arch. Biochem. Biophys. 1961, 95, 271-278}. First order inactivation rate constants (Kobs) were obtained from plots of In vt /vo vs time, and the correlation coefficients were greater then 0.98.
(§2) ^a Inhibition constants were measured in 0.1M Hepes, 0.01M CaCl2
(§3) pH 7.5 for trypsin, granzymes A, and K, and in 0.1M Hepes, 10% glycerol,
(§4) 10 mM heparin, pH 7.5 for mast cell tryptase, and at 25° C. The
(§5) reaction mixtures contained 2% DMSO for trypsin, 7.6% for granzyme A, and
(§6) 7.1% for granzyme K and tryptase. The substrate was Z--Arg--SBzl for
(§7) granzymes and trypsin, and Z--Arg--SBzl or Z--Lys--SBzl for tryptase in
(§8) the presence of DTNB. The inhibitor # concentration ranged from 0.001 to
(§9) ^b NI, no inhibition after 25 min of incubation with enzyme.
(§10) ^a Enzyme was incubated with the inhibitor in 250 μL of the proper
(§11) buffer at 25° C. Specifically, the inhibition reation mixtures wer
composed of: 0.13 μM trypsin, 0.25-42 μM inhibitor in an 80 mM
(§12) Hepes, pH 7.5 buffer containing 1 mM CaCl2 and 8% DMSO; 0.07 μM
(§13) DMSO. Aliquots of 25 μL were withdrawn at various intervals and the
(§14) residual enzymatic activity was measured as described in experimental
(§15) section. The kobs values were calculated from pseudofirst-order
(§16) ^a Enzyme (0.06-0.5 μM) was incubated with the inhibitor (0.25-42
(§17) μM) in 250 μL of the proper buffer containing 9% DMSO at 25°
(§18) C. The final inhibition reaction mixtures are given in the footnote to
(§19) Table 1. Aliquots of 25 μL were withdrawn at various intervals and the […]

human thrombin = target: T2, human thrombin (Homo sapiens, UniProt P00734); conditions: 25° C., NI = no inhibition
T2 construct: bovine trypsin, human thrombin
Protocol: as §1, with “271-278}.” for “271-278}. First order inactivation rate constants (Kobs) were obtained from plots of In vt /vo vs time, and the correlation coefficients were greater then 0.98.”
as §10, §11, §12
thrombin, 0.25-42 μM inhibitor in an 80 mM Hepes, pH 7.5 buffer
(§20) containing 428 mM NaCl and 8% DMSO; 0.07 μM tryptase, 20-66 μM
as §13, §14, §15, §16, §17, §18, §19

human granzyme A = target: T3, human granzyme A (Homo sapiens, UniProt P12544); assay: Inactivation rate of human granzyme A, incubation method; conditions: Table I; 0.1M Hepes, 0.01M CaCl2 pH 7.5, 25° C., 7.6% DMSO, substrate Z--Arg--SBzl
T3 sequence (P12544 29-262): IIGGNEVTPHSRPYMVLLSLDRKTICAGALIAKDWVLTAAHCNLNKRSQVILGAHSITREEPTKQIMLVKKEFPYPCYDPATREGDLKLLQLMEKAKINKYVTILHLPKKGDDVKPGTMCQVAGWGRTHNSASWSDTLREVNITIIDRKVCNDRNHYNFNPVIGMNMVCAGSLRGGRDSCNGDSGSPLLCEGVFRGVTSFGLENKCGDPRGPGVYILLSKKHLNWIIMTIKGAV
Protocol: as §1, §2, §3, §4, §5, §6, §7, §8, §9

rat granzyme A = assay: Inactivation rate of rat granzyme A, incubation method; conditions: Table I; 0.1M Hepes, 0.01M CaCl2 pH 7.5, 25° C., 7.6% DMSO, substrate Z--Arg--SBzl
Protocol: as §1, §2, §3, §4, §5, §6, §7, §8, §9

mast cell tryptase = mast cell tryptase (Homo sapiens, UniProt Q15661); assay: Inactivation rate of mast cell tryptase, incubation method; conditions: for kobsd /[I] mast cell tryptase: Table I, 0.1M Hepes, 10% glycerol, 10 mM heparin, pH 7.5, 25° C., 7.1% DMSO, NI = no inhibition after 25 min of incubation; for kobs /[I] mast cell tryptase: 25° C., NI = no inhibition
Protocol: as §1, §2, §3, §4, §5, §6, §7, §8, §9, §10, §20
inhibitor # in an mM Hepes, pH 7.5 buffer containing 8 mM heparin, 166 m
NaCl, 0.8 mM Mes, 9% glycerol and 8% DMSO; 0.42 μM factor Xa, 66 μM
as §13, §14, §15, §16, §17, §18, §19

rat granzyme K = target: T4, rat granzyme K (Rattus norvegicus, UniProt P49864); assay: Inactivation rate of rat granzyme K, incubation method; conditions: Table I; 0.1M Hepes, 0.01M CaCl2 pH 7.5, 25° C., 7.1% DMSO, substrate Z--Arg--SBzl; NI = no inhibition after 25 min of incubation
T4 sequence (P49864 26-258): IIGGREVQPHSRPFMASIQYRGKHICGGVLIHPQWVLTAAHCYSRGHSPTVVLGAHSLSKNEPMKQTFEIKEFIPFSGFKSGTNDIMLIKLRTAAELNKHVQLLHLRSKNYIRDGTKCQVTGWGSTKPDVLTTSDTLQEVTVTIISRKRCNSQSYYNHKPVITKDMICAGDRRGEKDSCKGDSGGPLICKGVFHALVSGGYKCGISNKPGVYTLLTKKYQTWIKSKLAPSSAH
Protocol: as §1, §2, §3, §4, §5, §6, §7, §8, §9

[3] = Table II, 0.07 μM thrombin, 0.25-42 μM inhibitor, 80 mM Hepes pH 7.5, 428 mM NaCl, 8% DMSO
[4] = Table II, 0.07 μM tryptase, 20-66 μM inhibitor, Hepes pH 7.5, heparin, 9% glycerol, 8% DMSO
[5] = Table III, enzyme 0.06-0.5 μM, inhibitor 0.25-42 μM, 9% DMSO

Chain of mast cell tryptase (Q15661 31-275): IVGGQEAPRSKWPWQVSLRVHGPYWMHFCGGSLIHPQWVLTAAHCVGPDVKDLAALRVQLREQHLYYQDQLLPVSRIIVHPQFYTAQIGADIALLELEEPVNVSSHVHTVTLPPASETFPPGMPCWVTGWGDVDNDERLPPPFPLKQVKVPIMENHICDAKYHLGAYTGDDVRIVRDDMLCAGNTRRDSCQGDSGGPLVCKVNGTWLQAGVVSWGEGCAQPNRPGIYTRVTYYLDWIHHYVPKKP

CC(C)(C)OC(=O)NC(CC(N)=O)C(=O)NC(CCCCN)P(=O)(Oc1ccccc1)Oc1ccccc1 (mixture of isomers) [Boc--Asn--Lys^P (OPh)2]
kobs /[I] bovine trypsin (bovine trypsin [1]): 3 M⁻¹ s⁻¹

CC(NC(=O)OCc1ccccc1)C(=O)NC(c1ccc(C(=N)N)cc1)P(=O)(Oc1ccccc1)Oc1ccccc1 (mixture of isomers) [Cbz--Ala-(4-AmPhGly)^P (OPh)2]
kobsd /[I] bovine trypsin (bovine trypsin [2]): 1850 ± 85 M⁻¹ s⁻¹ | kobs /[I] bovine trypsin (bovine trypsin [2]): 1,850 ± 85 M^-1 s^-1 | kobs /[I] human thrombin (human thrombin; [3]): 750 ± 18 M⁻¹ s⁻¹ | kobsd /[I] human granzyme A (human granzyme A): 1670 ± 11 M⁻¹ s⁻¹ | kobsd /[I] rat granzyme A (rat granzyme A): 1270 ± 85 M⁻¹ s⁻¹ | kobsd /[I] mast cell tryptase (mast cell tryptase): 0.8 M⁻¹ s⁻¹ | kobs /[I] mast cell tryptase (mast cell tryptase; [4]): 0.8 M⁻¹ s⁻¹

CC(C)C(NC(=O)CCC(=O)O)C(=O)N1CCCC1C(=O)NC(CCCCN)P(=O)(Oc1ccccc1)Oc1ccccc1 (mixture of isomers) [Suc--Val--Pro--Lys^P (OPh)2]
kobs /[I] bovine trypsin (bovine trypsin [1]): 416 ± 28 M⁻¹ s⁻¹ | kobs /[I] human thrombin (human thrombin; [5]): 3.4 ± 0.4 M⁻¹ s⁻¹ | kobs /[I] mast cell tryptase (mast cell tryptase; [5]): 0.6 M⁻¹ s⁻¹

CC(C)C(NC(=O)CCC(=O)O)C(=O)N1CCCC1C(=O)NC(CCCCCN)P(=O)(Oc1ccccc1)Oc1ccccc1 (mixture of isomers) [Suc--Val--Pro-HomoLys^P (OPh)2]
kobs /[I] bovine trypsin (bovine trypsin [1]): 51 ± 10 M⁻¹ s⁻¹ | kobs /[I] human thrombin (human thrombin; [5]): 1.6 ± 0.3 M⁻¹ s⁻¹ | kobs /[I] mast cell tryptase (mast cell tryptase; [5]): 4.1 ± 0.4 M⁻¹ s⁻¹

CC(C)(C)OC(=O)N[C@H](Cc1ccccc1)C(=O)N1CCC[C@H]1C(=O)NC(c1ccc(C(=N)N)cc1)P(=O)(Oc1ccccc1)Oc1ccccc1.Cl (stereo partly drawn) [Boc--D--Phe--Pro-(4-AmPhGly)^P (OPh)2, Diphenyl N-(Boc-D-Phe-Pro)amino(4-amidinophenyl)methanephosphonate hydrochloride]
kobsd /[I] bovine trypsin (bovine trypsin [2]): 130 M⁻¹ s⁻¹ | kobs /[I] bovine trypsin (bovine trypsin [2]): 2,200 M^-1 s^-1 | kobsd /[I] rat granzyme K (rat granzyme K): 56 ± 2 M⁻¹ s⁻¹ | kobs /[I] human thrombin (human thrombin; [3]): 11,000 M^-1 s^-1 | kobsd /[I] human granzyme A (human granzyme A): 170 M⁻¹ s⁻¹ | kobsd /[I] mast cell tryptase (mast cell tryptase): 0.4 M⁻¹ s⁻¹

Cl.N=C(N)c1ccc(C(NC(=O)[C@@H]2CCCN2C(=O)OCc2ccccc2)P(=O)(Oc2ccccc2)Oc2ccccc2)cc1 (stereo partly shown) [Cbz--Pro-(4-AmPhGly)^P (OPh)2, Diphenyl N-(N-benzyloxycarbonylprolyl)amino(4-amidinophenyl)methanephosphonate hydrochloride]
kobsd /[I] bovine trypsin (bovine trypsin [2]): 910 ± 81 M⁻¹ s⁻¹ | kobs /[I] bovine trypsin (bovine trypsin [2]): 910 ± 81 M⁻¹ s⁻¹ | kobsd /[I] rat granzyme K (rat granzyme K): 34 ± 4 M⁻¹ s⁻¹ | kobs /[I] human thrombin (human thrombin; [3]): 640 ± 86 M⁻¹ s⁻¹ | kobsd /[I] human granzyme A (human granzyme A): 790 ± 17 M⁻¹ s⁻¹ | kobsd /[I] mast cell tryptase (mast cell tryptase): 1.2 M⁻¹ s⁻¹ | kobs /[I] mast cell tryptase (mast cell tryptase; [4]): 1 M⁻¹ s⁻¹

C[C@H](NC(=O)[C@@H]1CCCN1C(=O)OCc1ccccc1)C(=O)NC(c1ccc(C(=N)N)cc1)P(=O)(Oc1ccccc1)Oc1ccccc1 (stereo partly shown) [Cbz--Pro--Ala-(4-AmPhGly)^P (OPh)2]
kobsd /[I] bovine trypsin (bovine trypsin [2]): 240 ± 10 M⁻¹ s⁻¹ | kobs /[I] bovine trypsin (bovine trypsin [2]): 240 ± 10 M⁻¹ s⁻¹ | kobsd /[I] rat granzyme K (rat granzyme K): 5 M⁻¹ s⁻¹ | kobs /[I] human thrombin (human thrombin; [3]): 70 ± 2 M⁻¹ s⁻¹ | kobsd /[I] human granzyme A (human granzyme A): 380 ± 18 M⁻¹ s⁻¹ | kobsd /[I] mast cell tryptase (mast cell tryptase): 1 M⁻¹ s⁻¹ | kobs /[I] mast cell tryptase (mast cell tryptase; [4]): 1 ± 0 M⁻¹ s⁻¹

Cl.N=C(N)c1ccc(C(NC(=O)[C@@H]2CCCN2C(=O)c2ccccc2Oc2ccccc2)P(=O)(Oc2ccccc2)Oc2ccccc2)cc1 (stereo partly shown) [Diphenyl N-(N-(2-Phenoxybenzoylprolyl))amino(4-amidinophenyl)methanephosphonate Hydrochloride]
kobsd /[I] bovine trypsin (bovine trypsin [2]): 7760 ± 310 M⁻¹ s⁻¹ | kobs /[I] bovine trypsin (bovine trypsin [2]): 7,760 ± 310 M^-1 s^-1 | kobsd /[I] rat granzyme K (rat granzyme K): 60 ± 5 M⁻¹ s⁻¹ | kobs /[I] human thrombin (human thrombin; [3]): 42,400 ± 4190 M^-1 s^-1 | kobsd /[I] human granzyme A (human granzyme A): 610 ± 88 M⁻¹ s⁻¹ | kobsd /[I] mast cell tryptase (mast cell tryptase): 0.9 M⁻¹ s⁻¹ | kobs /[I] mast cell tryptase (mast cell tryptase; [4]): 0.9 M⁻¹ s⁻¹

N=C(N)c1ccc(C(NC(=O)CCC(=O)O)P(=O)(Oc2ccccc2)Oc2ccccc2)cc1 (stereo not shown) [Suc-(4-AmPhGly)^P (OPh)2]
kobsd /[I] bovine trypsin (bovine trypsin [2]): 45 ± 3 M⁻¹ s⁻¹ | kobs /[I] bovine trypsin (bovine trypsin [2]): 45 ± 3 M⁻¹ s⁻¹ | kobsd /[I] rat granzyme K (rat granzyme K): 0.3 ± 0.07 M⁻¹ s⁻¹ | kobs /[I] human thrombin (human thrombin; [3]): 2 M⁻¹ s⁻¹ | kobsd /[I] human granzyme A (human granzyme A): 857 M⁻¹ s⁻¹ | kobsd /[I] mast cell tryptase (mast cell tryptase): 0.2 M⁻¹ s⁻¹ | kobs /[I] mast cell tryptase (mast cell tryptase; [4]): 0.2 M⁻¹ s⁻¹

C[C@H](NC(=O)CCC(=O)O)C(=O)N[C@@H](C)C(=O)NC(c1ccc(C(=N)N)cc1)P(=O)(Oc1ccccc1)Oc1ccccc1 (stereo partly shown) [Suc--Ala--Ala-(4-AmPhGly)^P (OPh)2]
kobsd /[I] bovine trypsin (bovine trypsin [2]): 640 ± 36 M⁻¹ s⁻¹ | kobs /[I] bovine trypsin (bovine trypsin [2]): 640 ± 36 M⁻¹ s⁻¹ | kobsd /[I] rat granzyme K (rat granzyme K): 0.3 ± 0.01 M⁻¹ s⁻¹ | kobs /[I] human thrombin (human thrombin; [3]): 2 M⁻¹ s⁻¹ | kobsd /[I] human granzyme A (human granzyme A): 260 ± 15 M⁻¹ s⁻¹ | kobsd /[I] mast cell tryptase (mast cell tryptase): 0.7 M⁻¹ s⁻¹ | kobs /[I] mast cell tryptase (mast cell tryptase; [4]): 0.7 M⁻¹ s⁻¹
